Laboratory results: US20120028888A1, “APJ RECEPTOR COMPOUNDS” (priority 2008, published 2012)
Non-standard residues stand in square brackets, D forms with d. Residues, ends and D or L forms follow the SMILES beside them. ξ: configuration not given here. *: point of attachment. Palmitoyl = CCCCCCCCCCCCCCCC(=O)*; ξR = N=C(N)NCCCC(N)C(=O)O

Target: T1, Gi-coupled receptor APJ (HEK cells stably expressing the APJ receptor) (Homo sapiens, UniProt P35414)
T1 construct: expressed in transfected cells; host or cells: HEK cells stably expressing APJ
T1 sequence (P35414 1-380): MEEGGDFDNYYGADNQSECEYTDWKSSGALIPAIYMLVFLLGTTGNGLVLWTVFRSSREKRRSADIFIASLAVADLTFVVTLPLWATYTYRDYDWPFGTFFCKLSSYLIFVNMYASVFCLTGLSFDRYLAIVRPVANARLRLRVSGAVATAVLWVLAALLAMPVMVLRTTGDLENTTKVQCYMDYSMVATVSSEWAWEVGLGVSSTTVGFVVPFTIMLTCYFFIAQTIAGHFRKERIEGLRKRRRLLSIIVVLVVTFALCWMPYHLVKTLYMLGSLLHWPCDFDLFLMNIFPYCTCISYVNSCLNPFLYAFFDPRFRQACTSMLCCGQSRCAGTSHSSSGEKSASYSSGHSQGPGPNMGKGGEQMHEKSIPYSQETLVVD
Assay: HTRF cAMP assay: inhibition of NKH477 stimulated increase in cAMP
Assay type: cell-based
Conditions: read-out: EC50 value (nM), SEM
Excerpt: HTRF (homogeneous time resolved fluorescence) is a technology developed by Cisbio Bioassays based on TR-FRET (time-resolved fluorescence resonance energy transfer). Cisbio Bioassays has developed a wide selection of HTRF-based assays compatible with whole cells, thereby enabling functional assays to run under more physiological conditions. The IP-One assays are competitive immunoassays using cryptate-labeled anti-IPI monoclonal antibody and d2-labeled IP1. IP1 is a relatively stable downstream metabolite of IP3, and accumulates in cells following Gq receptor activation.
cAMP kits based on a competitive immunoassay using cryptate-labeled anti-cAMP antibody and d2-labeled cAMP were used to assay the effects of APJ compounds of the present invention. This assay measures the increase in intracellular cAMP upon Gs-coupled receptor activation as well as decrease in forskolin (or a more soluble version of forskolin—NKH477) stimulated increase in cAMP upon Gi-coupled receptor activation.

| Compound | EC50 [nM] |
| --- | --- |
| CCCCCCCCCCCCCCCC(=O)N[C@H](C(=O)N[C@@H](CCCNC(=N)N)C(=O)N1CCC[C@H]1C(=O)N[C@H](C(=O)N[C@@H](C)C(=O)N[C@@H](CC(N)=O)C(=O)N[C@@H](C)C(=O)N[C@@H](CCCNC(=N)N)C(=O)N[C@@H](CC(C)C)C(=O)N[C@@H](CCCNC(=N)N)C(=O)N[C@@H](CC(C)C)C(=O)N[C@@H](CCCNC(=N)N)C(=O)N[C@H](C(=O)N[C@@H](CO)C(N)=O)C(C)C)C(C)C)C(C)C [Compound 86] (Palmitoyl-VRPVANARLRLRVS-NH2) | > 10000 |
| CCCCCCCCCCCCCCCC(=O)N[C@@H](CO)C(=O)N[C@@H](CO)C(=O)N[C@@H](CCCNC(=N)N)C(=O)N[C@@H](CCC(=O)O)C(=O)N[C@@H](CCCCN)C(=O)N[C@@H](CCCNC(=N)N)C(=O)N[C@@H](CCCNC(=N)N)C(=O)N[C@@H](CO)C(=O)N[C@@H](C)C(=O)N[C@@H](CC(=O)O)C(=O)N[C@H](C(=O)N[C@@H](Cc1ccccc1)C(=O)N[C@H](C(=O)N[C@@H](C)C(N)=O)[C@@H](C)CC)[C@@H](C)CC [Compound 33] (Palmitoyl-SSREKRRSADIFIA-NH2) | > 10000 |
| CCCCCCCCCCCCCCCC(=O)N[C@H](C(=O)N[C@@H](C)C(=O)N[C@@H](Cc1ccccc1)C(=O)N[C@@H](CCCNC(=N)N)C(=O)N[C@@H](CO)C(=O)N[C@@H](CO)C(=O)N[C@@H](CCCNC(=N)N)C(=O)N[C@@H](CCC(=O)O)C(=O)N[C@@H](CCCCN)C(=O)N[C@@H](CCCNC(=N)N)C(=O)N[C@@H](CCCNC(=N)N)C(=O)N[C@@H](CO)C(=O)N[C@@H](C)C(=O)N[C@@H](CC(=O)O)C(=O)N[C@H](C(=O)N[C@@H](Cc1ccccc1)C(=O)N[C@H](C(N)=O)[C@@H](C)CC)[C@@H](C)CC)[C@@H](C)O [Compound 22] (Palmitoyl-TAFRSSREKRRSADIFI-NH2) | 1 to 500 |
| CCCCCCCCCCCCCCCC(=O)N[C@H](C(=O)N[C@H](C(=O)N[C@@H](CCCNC(=N)N)C(=O)N1CCC[C@H]1C(=O)N[C@H](C(=O)N[C@@H](C)C(=O)N[C@@H](CC(N)=O)C(=O)N[C@@H](C)C(=O)N[C@@H](CCCNC(=N)N)C(=O)N[C@@H](CC(C)C)C(=O)N[C@@H](CCCNC(=N)N)C(=O)N[C@@H](CC(C)C)C(=O)N[C@@H](CCCNC(=N)N)C(=O)N[C@H](C(=O)N[C@@H](CO)C(=O)NCC(N)=O)C(C)C)C(C)C)C(C)C)[C@@H](C)CC [Compound 77] (Palmitoyl-IVRPVANARLRLRVSG-NH2) | > 10000 |
| CCCCCCCCCCCCCCCC(=O)N[C@H](C(=O)N[C@@H](CCCNC(=N)N)C(=O)N1CCC[C@H]1C(=O)N[C@H](C(=O)N[C@@H](C)C(=O)N[C@@H](CC(N)=O)C(=O)N[C@@H](C)C(=O)N[C@@H](CCCNC(=N)N)C(=O)N[C@@H](CC(C)C)C(=O)NC(CCCNC(=N)N)C(=O)N[C@@H](CC(C)C)C(N)=O)C(C)C)C(C)C (stereo partly drawn) [Compound 84] (Palmitoyl-VRPVANARL[ξR]L-NH2) | > 10000 |
| CCCCCCCCCCCCCCCC(=O)N[C@H](C(=O)N[C@@H](CCCNC(=N)N)C(=O)N1CCC[C@H]1C(=O)N[C@H](C(=O)N[C@@H](C)C(=O)N[C@@H](CC(N)=O)C(=O)N[C@@H](C)C(=O)N[C@@H](CCCNC(=N)N)C(=O)N[C@@H](CC(C)C)C(=O)N[C@@H](CCCNC(=N)N)C(=O)N[C@@H](CC(C)C)C(=O)N[C@@H](CCCNC(=N)N)C(=O)N[C@H](C(=O)N[C@@H](CO)C(=O)NCC(N)=O)C(C)C)C(C)C)C(C)C [Compound 76] (Palmitoyl-VRPVANARLRLRVSG-NH2) | > 10000 |
| CCCCCCCCCCCCCCCC(=O)N[C@H](C(=O)N[C@H](C(=O)N[C@@H](Cc1ccccc1)C(=O)N[C@@H](CCCNC(=N)N)C(=O)N[C@@H](C)C(=O)N[C@@H](CO)C(=O)N[C@@H](CCCNC(=N)N)C(=O)N[C@@H](CCC(=O)O)C(=O)N[C@@H](CCCCN)C(=O)N[C@@H](CCCNC(=N)N)C(=O)N[C@@H](CCCNC(=N)N)C(=O)N[C@@H](CO)C(=O)N[C@@H](C)C(=O)N[C@@H](CC(=O)O)C(=O)N[C@H](C(=O)N[C@@H](Cc1ccccc1)C(=O)N[C@H](C(N)=O)[C@@H](C)CC)[C@@H](C)CC)C(C)C)[C@@H](C)O [Compound 27] (Palmitoyl-TVFRASREKRRSADIFI-NH2) | 501 to 1000 |
